Structures are written as SMILES. Bounds are passed on as bounds.

One data set deals with MOLM-13 cells. Kind of data set: MOLM-13 cell viability assay (CellTiter-Glo). Format: cell-based. The settings on record: 3 days, concentration of 1 μM. The procedure, abridged:
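MOLM-13 AML cells in RPMI 1640 with 10% FBS, seeded at 2,500 cells/well and exposed to compound or DMSO for 3 days at 37° C, 5% CO2. Viability read as CellTiter-Glo luminescence after 10 min shaking.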
A general note: ATP-based viability assays read luminescence as a measure of living cells.
Regarding `CC(C)(C)c1ccc(C(=O)C(=O)NCc2scc3c2CN(C2CCC(=O)NC2=O)C3=O)cc1` (stereo not drawn) [Compound I-40, 2-(4-(tert-butyl)phenyl)-N-((5-(2,6-dioxopiperidin-3-yl)-4-oxo-5,6-dihydro-4H-thieno[3,4-c]pyrrol-1-yl)methyl)-2-oxoacetamide], the “Antiproliferative Activity (inhibition, MOLM-13 cell viability)” value is given as “D (a value less than 25% inhibition)”. For `CC(C)(C)c1ccc(C(=O)C(=O)NCc2cc3c(s2)C(=O)N(C2CCC(=O)NC2=O)C3)cc1` (stereo not drawn) [Compound I-35, 2-(4-(tert-butyl)phenyl)-N-((5-(2,6-dioxopiperidin-3-yl)-6-oxo-5,6-dihydro-4H-thieno[2,3-c]pyrrol-2-yl)methyl)-2-oxoacetamide], the “Antiproliferative Activity (inhibition, MOLM-13 cell viability)” value is listed as “D (a value less than 25% inhibition)”.

Still in this data set, the particulars now being: Homo sapiens, MOLM-13, 72 h, 3 days, concentration of 1 μM, read-out: Antiproliferative Activity (inhibition, MOLM-13 cell viability).
As to `CC1CCC(CC(=O)NCc2scc3c2CN(C2CCC(=O)NC2=O)C3=O)CC1` (stereo not drawn) [II-75, N-((5-(2,6-dioxopiperidin-3-yl)-4-oxo-5,6-dihydro-4H-thieno[3,4-c]pyrrol-1-yl)methyl)-2-(4-methylcyclohexyl)acetamide], the cytotoxicity at 1 µM was < 25%. With `O=C1CCC(N2Cc3c(CNC(=O)C(=O)c4ccc(F)c(F)c4)cccc3C2=O)C(=O)N1` (stereo not drawn) [Compound I-73, 2-(3,4-difluorophenyl)-N-((2-(2,6-dioxopiperidin-3-yl)-1-oxoisoindolin-4-yl)methyl)-2-oxoacetamide], the cytotoxicity at 1 µM was < 25%. For `CC(C)(C)c1ccc(CCCC(=O)NCc2scc3c2CN(C2CCC(=O)NC2=O)C3=O)cc1` (stereo not drawn) [II-84, 4-(4-(tert-butyl)phenyl)-N-((5-(2,6-dioxopiperidin-3-yl)-4-oxo-5,6-dihydro-4H-thieno[3,4-c]pyrrol-1-yl)methyl)butanamide], the cytotoxicity at 1 µM is < 25%. Turning to `O=C1CCC(N2Cc3c(csc3CNC(=O)C(=O)c3ccc(Cl)cc3)C2=O)C(=O)N1` (stereo not drawn) [Compound I-18, 2-(4-chlorophenyl)-N-((5-(2,6-dioxopiperidin-3-yl)-4-oxo-5,6-dihydro-4H-thieno[3,4-c]pyrrol-1-yl)methyl)-2-oxoacetamide], the cytotoxicity at 1 µM was < 25%. Same read-out and setting: the value for `Cc1cc(NC(=O)NCc2cc3c(s2)C(=O)N(C2CCC(=O)NC2=O)C3)cc(N(C)C)c1` (stereo not drawn) [II-49, 1-(3-(dimethylamino)-5-methylphenyl)-3-((5-(2,6-dioxopiperidin-3-yl)-6-oxo-5,6-dihydro-4H-thieno[2,3-c]pyrrol-2-yl)methyl)urea] was > 80%; that for `O=C1CCC(N2Cc3cc(CNC(=O)C(=O)c4ccc(F)c(F)c4)ccc3C2=O)C(=O)N1` (stereo not drawn) [Compound I-93, 2-(3,4-difluorophenyl)-N-((2-(2,6-dioxopiperidin-3-yl)-1-oxoisoindolin-5-yl)methyl)-2-oxoacetamide] was > 80%; that for `Cc1cc(C(=O)C(=O)NCc2ccc3c(c2)CN(C2CCC(=O)NC2=O)C3=O)ccc1C(C)(C)C` (stereo not drawn) [Compound I-55, 2-(3-methyl-4-(tert-butyl)phenyl)-N-((2-(2,6-dioxopiperidin-3-yl)-1-oxoisoindolin-5-yl)methyl)-2-oxoacetamide] was > 80%.

`CN(Cc1ccc2c(c1)CN(C1CCC(=O)NC1=O)C2=O)C(=O)C(=O)c1ccc(C(C)(C)C)cc1` (stereo not drawn) [Compound I-34, 2-(4-(tert-butyl)phenyl)-N-((2-(2,6-dioxopiperidin-3-yl)-1-oxoisoindolin-5-yl)methyl)-N-methyl-2-oxoacetamide]: the cytotoxicity at 1 µM is < 25%. As to `CC(C)c1cccc(NC(=O)NCc2cc3c(s2)C(=O)N(C2CCC(=O)NC2=O)C3)c1` (stereo not drawn) [II-70, 1-((5-(2,6-dioxopiperidin-3-yl)-6-oxo-5,6-dihydro-4H-thieno[2,3-c]pyrrol-2-yl)methyl)-3-(3-isopropylphenyl)urea], the cytotoxicity at 1 µM is > 80%.

For `CC(C)(C)c1ccc(S(=O)(=O)NCCc2scc3c2CN(C2CCC(=O)NC2=O)C3=O)cc1` (stereo not drawn) [II-131, 4-(tert-butyl)-N-(2-(5-(2,6-dioxopiperidin-3-yl)-4-oxo-5,6-dihydro-4H-thieno[3,4-c]pyrrol-1-yl)ethyl)benzenesulfonamide], the cytotoxicity at 1 µM is < 25%. The same measure, in the same setting: the value for `O=C(/C=C/c1ccc(C2(C(F)(F)F)CC2)cc1)NCc1ccc2c(c1)CN(C1CCC(=O)NC1=O)C2=O` (stereo not drawn) [II-149, (E)-N-((2-(2,6-dioxopiperidin-3-yl)-1-oxoisoindolin-5-yl)methyl)-3-(4-(1-(trifluoromethyl)cyclopropyl)phenyl)acrylamide] was > 80%. On to `O=C1CCC(N2Cc3c(CNC(=O)C(=O)c4ccc(Br)cc4)cccc3C2=O)C(=O)N1` (stereo not drawn) [Compound I-106, 2-(4-bromophenyl)-N-((2-(2,6-dioxopiperidin-3-yl)-1-oxoisoindolin-4-yl)methyl)-2-oxoacetamide], for which the cytotoxicity at 1 µM is < 25%. Regarding `N#Cc1ccc(C(=O)C(=O)NCc2cccc3c2CN(C2CCC(=O)NC2=O)C3=O)cc1` (stereo not drawn) [Compound I-76, 2-(4-cyanophenyl)-N-((2-(2,6-dioxopiperidin-3-yl)-1-oxoisoindolin-4-yl)methyl)-2-oxoacetamide], the cytotoxicity at 1 µM was < 25%. `Cc1ccc(NC(=S)NCc2cc3c(s2)C(=O)N(C2CCC(=O)NC2=O)C3)cc1Cl` (stereo not drawn) [II-39, 1-(3-chloro-4-methylphenyl)-3-((5-(2,6-dioxopiperidin-3-yl)-6-oxo-5,6-dihydro-4H-thieno[2,3-c]pyrrol-2-yl)methyl)thiourea]: the cytotoxicity at 1 µM was > 80%. Take `CN(C)C(C(=O)NCc1scc2c1CN(C1CCC(=O)NC1=O)C2=O)c1ccccc1F` (stereo not drawn) [II-108, 2-(dimethylamino)-N-((5-(2,6-dioxopiperidin-3-yl)-4-oxo-5,6-dihydro-4H-thieno[3,4-c]pyrrol-1-yl)methyl)-2-(2-fluorophenyl)acetamide]: the cytotoxicity at 1 µM is < 25%.

Turning to `Cc1c(CNC(=O)C(=O)c2ccc(C3(C(F)(F)F)CC3)cc2)ccc2c1CN(C1CCC(=O)NC1=O)C2=O` (stereo not drawn) [Compound I-60, N-((2-(2,6-dioxopiperidin-3-yl)-4-methyl-1-oxoisoindolin-5-yl)methyl)-2-oxo-2-(4-(1-(trifluoromethyl)cyclopropyl)phenyl)acetamide], the cytotoxicity at 1 µM was 50 to 80%.

As for `COc1cc(OC)c(C(=O)C(=O)NCc2ccc3c(c2)CN(C2CCC(=O)NC2=O)C3=O)c(OC)c1` (stereo not drawn) [Compound I-84, N-((2-(2,6-dioxopiperidin-3-yl)-1-oxoisoindolin-5-yl)methyl)-2-oxo-2-(2,4,6-trimethoxyphenyl)acetamide], the cytotoxicity at 1 µM is 25 to 50%. As to `Cc1ccc(C(=O)C(=O)NCc2scc3c2CN(C2CCC(=O)NC2=O)C3=O)cc1Cl` (stereo not drawn) [Compound I-6, 2-(3-chloro-4-methylphenyl)-N-((5-(2,6-dioxopiperidin-3-yl)-4-oxo-5,6-dihydro-4H-thieno[3,4-c]pyrrol-1-yl)methyl)-2-oxoacetamide], the cytotoxicity at 1 µM lay within 25 to 50%. In the case of `CC(C)(C)c1cccc(C(=O)C(=O)NCc2scc3c2CN(C2CCC(=O)NC2=O)C3=O)c1` (stereo not drawn) [Compound I-19, 2-(3-tert-butylphenyl)-N-((5-(2,6-dioxopiperidin-3-yl)-4-oxo-5,6-dihydro-4H-thieno[3,4-c]pyrrol-1-yl)methyl)-2-oxoacetamide], the cytotoxicity at 1 µM was > 80%. Same read-out and setting: the value for `O=C1CCC(N2Cc3cc(CNC(=O)C(F)(F)c4ccc(C5(C(F)(F)F)CC5)cc4)ccc3C2=O)C(=O)N1` (stereo not drawn) [II-164, N-((2-(2,6-dioxopiperidin-3-yl)-1-oxoisoindolin-5-yl)methyl)-2,2-difluoro-2-(4-(1-(trifluoromethyl)cyclopropyl)phenyl)acetamide] was > 80%.

On to `O=C1CCC(N2Cc3cc(CNC(=O)C(=O)c4ccncc4)ccc3C2=O)C(=O)N1` (stereo not drawn) [Compound I-103, N-((2-(2,6-dioxopiperidin-3-yl)-1-oxoisoindolin-5-yl)methyl)-2-oxo-2-(pyridin-4-yl)acetamide], for which the cytotoxicity at 1 µM is < 25%.

As for `O=C1CCC(N2Cc3c(csc3CNC(=O)C(=O)c3ccccc3)C2=O)C(=O)N1` (stereo not drawn) [Compound I-8, 2-phenyl-N-((5-(2,6-dioxopiperidin-3-yl)-4-oxo-5,6-dihydro-4H-thieno[3,4-c]pyrrol-1-yl)methyl)-2-oxoacetamide], the cytotoxicity at 1 µM was < 25%.

The values above are taken from patent publication US11345712B2, “Protein-targeting compounds and pharmaceutical compositions thereof, and their therapeutic applications” (BioTheryX, Inc., priority 2019, dated 2022).
